Reference: patent publication US6245780A, “Tetrahydroisoquinolinyl-indole derivatives for the treatment of depression” (American Home Products Corp, priority 2000, dated 2001)
Where two headings read alike, the source gives them in different places.

Tests used:
human 5-HT1A receptor = molecular target: T1, human 5-HT1A receptor (Homo sapiens, UniProt P08908); experiment: human 5-HT1A receptor binding, [3H]8-OH-DPAT radioligand, membranes of 5-HT1A.CHO cells; details: for inhibition at 1 µM: 1 uM compound, value in parentheses, read-out: 5-HT1A % inh @ 1 uM
T1 construct: expressed in transfected cells; host or cells: Chinese hamster ovary cells (5-HT1A.CHO)
T1 sequence (P08908 1-422): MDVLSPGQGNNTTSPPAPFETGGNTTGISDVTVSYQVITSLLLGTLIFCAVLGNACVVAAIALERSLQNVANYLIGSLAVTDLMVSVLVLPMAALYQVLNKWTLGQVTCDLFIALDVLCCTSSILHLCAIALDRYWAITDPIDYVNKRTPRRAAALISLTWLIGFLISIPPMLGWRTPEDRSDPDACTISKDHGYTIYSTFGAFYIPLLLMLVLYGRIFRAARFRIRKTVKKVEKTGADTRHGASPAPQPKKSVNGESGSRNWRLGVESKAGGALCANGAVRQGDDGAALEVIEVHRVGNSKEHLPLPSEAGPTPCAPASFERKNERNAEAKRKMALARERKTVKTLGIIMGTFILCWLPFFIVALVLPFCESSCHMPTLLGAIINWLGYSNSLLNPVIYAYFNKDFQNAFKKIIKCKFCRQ
Experimental: (§1) The PCR cloning of the human 5-HT1A receptor subtype from a human genomic library has been described previously by Chanda et al., Mol. Pharmacol., 43:516 (1993). A stable Chinese hamster ovary cell line expressing the human 5-HT1A receptor subtype (5-HT1A.CHO cells) was employed throughout this study. Cells were maintained in DMEM supplemented with 10% fetal calf serum, non-essential amino acids and penicillin/streptomycin.
Cells were grown to 95-100% confluency as a monolayer before membranes were harvested for binding studies. Cells were gently scraped from the culture plates, transferred to centrifuge tubes, and washed twice by centrifugation (2000 rpm for 10 min., 4° C.) in buffer (50 mM Tris; pH 7.5). The resulting pellets were aliquoted and maintained at -80° C. On the day of assay, the cells were thawed on ice, and resuspended in buffer. Studies were conducted using [^3 H]8-OH-DPAT as the radioligand. The binding assay was performed in 96 well microtiter plates in a final total volume of 250 μL of buffer. Comparison experiments were performed by using 7 concentrations of unlabelled drug and a final ligand concentration of 1.5 nM. Non-specific binding was determined in the presence of 10 μM 5HT. Saturation analysis was conducted by using [^3 H]8-OH-DPAT at concentrations ranging from 0.3-30 nM. Following a 30 minute incubation at room temperature, the reaction was terminated by the addition of ice cold buffer and rapid filtration using a M-96 Brandel Cell Harvester (Gaithersburg, Md.) through a GF/B filter presoaked for 30 minutes in 0.5% polyethyleneimine.

5-HT1A cloned receptor = molecular target: T2, 5-HT1A cloned receptor (Homo sapiens, UniProt P08908); experiment: [35S]-GTPγS binding assay, 5-HT1A cloned receptor membrane fragments; type: biochemical; details: maximum agonist response defined by excess 8-OH-DPAT; value in parentheses; read-out: GTPgS % EMax
T2 construct: expressed in transfected cells; host or cells: Chinese hamster ovary cells (5-HT1A.CHO)
T2 sequence (P08908 1-422): T1 sequence (P08908 1-422)
Source text: as §1
The [^35 S]-GTPγS binding assay was similar to that used by Lazareno and Birdsall, Br. J. Pharmacol. 109:1120 (1993). Briefly, 5-HT1A cloned receptor membrane fragments (as used for 5-HT1A receptor binding assays) were stored at -70° C. When needed, membranes were rapidly thawed, centrifuged at 40,000×g for 10 minutes and resuspended at 4° C. for 10 minutes in assay buffer (25 mM HEPES, 3 mM MgCl2, 100 mM NaCl, 1 mM EDTA, 10 uM GDP, […], pH 8.0). These membranes were then incubated for 30 min at 30° C. with [^35 S]GTPgS (1 nM) in the presence of vehicle, test compound (one to eight concentrations), or excess 8-OH-DPAT to define maximum agronist response. All reactions were terminated by the addition of ice cold Tris buffer followed by rapid filtration using a Tom Tech® filtration device to separate bound from free [^35 S]GTPgS. Agonists produced an increase in the amount of [^35 S]GTPgS bound whereas antagonists produced no increase in binding. Bound radioactivity was counted and analyzed as above.

serotonin transporter = molecular target: T3, serotonin transporter (Rattus norvegicus, UniProt P31652); experiment: affinity for the serotonin transporter (ST), 3H-paroxetine, rat frontal cortical membranes; type: binding, rat (male Sprague-Dawley); details: 3H-paroxetine 0.1 nM, 60 min, 25° C.
T3 construct: frontal cortical membranes prepared from male Sprague-Dawley rats; from tissue; host or cells: rat (male Sprague-Dawley) frontal cortex membranes
Experimental: A protocol similar to that used by Cheetham et al., Neuropharmacol., 32:737 (1993) was used to determine the affinity of compounds for the serotonin transporter. Briefly, frontal cortical membranes prepared from male Sprague-Dawley rats were incubated with ^3 H-parsoxetinc (0.1 nM) for 60 min at 25° C. All tubes also contained either vehicle, test compound (one to eight concentrations), or a saturating concentration of fluoxetine (10 μM) to define […]. All reactions were terminated by the addition of ice cold Tris buffer followed by rapid filtration using a Tom Tech filtration device to separate bound from free ^3 H-paroxetine. Bound radioactivity was quantitated using a Wallac 1205 Beta Plate® counter. Nonlinear regression analysis was used to determine IC50 values which were converted to Ki values using the method set forth in Cheng and Prusoff, Biochem. Pharmacol., 22:3099 (1973) ([…].

[1] = [3H]8-OH-DPAT, 1.5 nM, 5-HT1A.CHO membranes, read-out: 5-HT1A Ki

T3 sequence (P31652 whole entry): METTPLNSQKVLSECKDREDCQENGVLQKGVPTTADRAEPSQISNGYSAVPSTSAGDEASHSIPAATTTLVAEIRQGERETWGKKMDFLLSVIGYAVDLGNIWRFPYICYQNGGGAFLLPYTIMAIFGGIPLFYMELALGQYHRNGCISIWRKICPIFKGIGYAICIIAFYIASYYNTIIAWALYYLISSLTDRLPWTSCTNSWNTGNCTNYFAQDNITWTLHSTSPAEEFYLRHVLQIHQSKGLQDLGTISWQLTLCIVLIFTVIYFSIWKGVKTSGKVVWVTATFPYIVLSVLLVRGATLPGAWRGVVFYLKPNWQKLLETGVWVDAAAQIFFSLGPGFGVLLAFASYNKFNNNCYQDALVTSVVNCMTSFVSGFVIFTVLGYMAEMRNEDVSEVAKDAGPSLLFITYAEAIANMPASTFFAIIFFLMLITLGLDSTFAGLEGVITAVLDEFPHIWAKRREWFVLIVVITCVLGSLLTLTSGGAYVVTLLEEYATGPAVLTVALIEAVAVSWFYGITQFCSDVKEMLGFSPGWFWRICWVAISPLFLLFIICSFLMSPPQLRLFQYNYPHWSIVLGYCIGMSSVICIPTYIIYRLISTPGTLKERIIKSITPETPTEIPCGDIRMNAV

Q: How did the inhibition at 1 µM (human 5-HT1A receptor; [3H]8-OH-DPAT) turn out when `COc1ccc2c(c1)CN([C@H]1CC[C@@H](c3c[nH]c4ccc(C#N)cc43)CC1)CC2` [Example 1a, 3-[(1,4-cis)-4-(7-Methoxy-3,4-dihydro-1H-isoquinolin-2-yl)-cyclohexyl]-1H-indole-5-carbonitrile] was run?
A: The inhibition at 1 µM was 26%.

Q: Which inhibition at 1 µM (human 5-HT1A receptor; [3H]8-OH-DPAT) does the source give for `COc1ccc2c(c1)CN([C@H]1CC[C@H](c3c[nH]c4ccc(C#N)cc43)CC1)CC2` [Example 1b, 3-[(1,4-trans)-4-(7-Methoxy-3,4-dihydro-1H-isoquinolin-2-yl)-cyclohexyl]-1H-indole-5-carbonitrile] here?
A: The inhibition at 1 µM was 48%.

Q: How did the inhibition at 1 µM (human 5-HT1A receptor; [3H]8-OH-DPAT) turn out when `COc1cccc2c1CN([C@H]1CC[C@@H](c3c[nH]c4ccc(C#N)cc43)CC1)CC2` [Example 2a, 3-[(1,4-cis)-4-(8-Methoxy-3,4-dihydro-1H-isoquinolin-2-yl)-cyclohexyl]-1H-indole-5-carbonitrile] was run?
A: The inhibition at 1 µM was 14%.

Q: With `COc1cccc2c1CN([C@H]1CC[C@H](c3c[nH]c4ccc(C#N)cc43)CC1)CC2` [Example 2b, 3-[(1,4-trans)-4-(8-Methoxy-3,4-dihydro-1H-isoquinolin-2-yl)-cyclohexyl]-1H-indole-5-carbonitrile] as the compound, how does the inhibition at 1 µM (human 5-HT1A receptor; [3H]8-OH-DPAT) read?
A: Its inhibition at 1 µM is 46%.

Q: For `COc1ccc2c(c1)CCN([C@H]1CC[C@@H](c3c[nH]c4ccc(C#N)cc43)CC1)C2` [Example 3a, 3-[(1,4-cis)-4-(6-Methoxy-3,4-dihydro-1H-isoquinolin-2-yl)-cyclohexyl]-1H-indole-5-carbonitrile], which inhibition at 1 µM (human 5-HT1A receptor; [3H]8-OH-DPAT) is on record?
A: Its inhibition at 1 µM is 21%.

Q: What does the source list for `COc1ccc2c(c1)CCN([C@H]1CC[C@H](c3c[nH]c4ccc(C#N)cc43)CC1)C2` [Example 3b, 3-[(1,4-trans)-4-(6-Methoxy-3,4-dihydro-1H-isoquinolin-2-yl)-cyclohexyl]-1H-indole-5-carbonitrile]?
A: Emax (5-HT1A cloned receptor): 0%; Ki (human 5-HT1A receptor): 300 nM

Q: Which results are given for `COc1cccc2c1CCN([C@H]1CC[C@@H](c3c[nH]c4ccc(C#N)cc43)CC1)C2` [Example 4a, 3-[(1,4-cis)-4-(5-Methoxy-3,4-dihydro-1H-isoquinolin-2-yl)-cyclohexyl]-1H-indole-5-carbonitrile]?
A: Emax (5-HT1A cloned receptor): 12%; inhibition at 1 µM (human 5-HT1A receptor; [3H]8-OH-DPAT): 7%

Q: With `COc1cccc2c1CCN([C@H]1CC[C@H](c3c[nH]c4ccc(C#N)cc43)CC1)C2` [Example 4b, 3-[(1,4-trans)-4-(5-Methoxy-3,4-dihydro-1H-isoquinolin-2-yl)-cyclohexyl]-1H-indole-5-carbonitrile] as the compound, how does the Emax (5-HT1A cloned receptor) read?
A: The Emax was 33%.

Q: What about the inhibition at 1 µM (human 5-HT1A receptor; [3H]8-OH-DPAT) of the same compound?
A: Its inhibition at 1 µM is 47%.

Q: `N#Cc1ccc2[nH]cc([C@H]3CC[C@@H](N4CCc5ccccc5C4)CC3)c2c1` [Example 5a, 3-[(1,4-cis)-4-(3,4-Dihydro-1H-isoquinolin-2-yl)-cyclohexyl]-1H-indole-5-carbonitrile] was tested. Which Ki (serotonin transporter) did it give?
A: The Ki was 1.3 nM.

Q: And the inhibition at 1 µM (human 5-HT1A receptor; [3H]8-OH-DPAT)?
A: Its inhibition at 1 µM is 0%.

Q: `N#Cc1ccc2[nH]cc([C@H]3CC[C@H](N4CCc5ccccc5C4)CC3)c2c1` [Example 5b, 3-[(1,4-trans)-4-(3,4-Dihydro-1H-isoquinolin-2-yl)-cyclohexyl]-1H-indole-carbonitrile] was tested. Which inhibition at 1 µM (human 5-HT1A receptor; [3H]8-OH-DPAT) did it give?
A: Its inhibition at 1 µM is 10%.

Q: With `COc1cccc2c1CCN(CCCc1c[nH]c3ccc(F)cc13)C2` [Example 6, 2-[3-(5-Fluoro-1H-indol-3-yl)-propyl]-5-methoxy-1,2,3,4-tetrahydroisoquinoline] as the compound, how does the Emax (5-HT1A cloned receptor) read?
A: Its Emax is 23%.

Q: What about the Ki (serotonin transporter) of the same compound?
A: Its Ki is 1.9 nM.

Q: What about the Ki (human 5-HT1A receptor; [1]) of the same compound?
A: Its Ki is 243 nM.

Q: Which results are given for `COc1ccc2c(c1)CCN(CCCc1c[nH]c3ccc(F)cc13)C2` [Example 7, 2-[3-(5-Fluoro-1H-indol-3-yl)-propyl]-6-methoxy-1,2,3,4-tetrahydroisoquinoline]?
A: Emax (5-HT1A cloned receptor): 100%; Ki (serotonin transporter): 1.4 nM; Ki (human 5-HT1A receptor; [1]): 288 nM

Q: Which Emax (5-HT1A cloned receptor) does the source give for `Fc1ccc2[nH]cc(CCCN3CCc4ccccc4C3)c2c1` [Example 8, 2-[3-(5-Fluoro-1H-indol-3-yl)-propyl]-1,2,3,4-tertrahydroisoquinoline] here?
A: Its Emax is 13%.

Q: What about the Ki (serotonin transporter) of the same compound?
A: The Ki was 4.85 nM.

Q: And the inhibition at 1 µM (human 5-HT1A receptor; [3H]8-OH-DPAT)?
A: Its inhibition at 1 µM is 48%.
